Assay results as given in patent publication US12605369B2, “Amido-substituted heterocyclic compounds and methods of use thereof for the treatment of herpes viruses” (Merck Sharp & Dohme LLC, priority 2019, dated 2026).
Read-outs that look alike come from different tables or passages of the source.

Key:
[1] = biological target: T1, varicella zoster virus DNA polymerase (Varicella-zoster virus, UniProt P09252); assay: VZV polymerase assay (AlphaLISA, Example 15); assay type: biochemical; settings: VZV polymerase 0.4 nM; 30 min pre-incubation; 60 min at 37° C.
T1 construct: made in house; host or cells: SF21 insect cells (baculovirus vector)
T1 sequence (P09252 whole entry): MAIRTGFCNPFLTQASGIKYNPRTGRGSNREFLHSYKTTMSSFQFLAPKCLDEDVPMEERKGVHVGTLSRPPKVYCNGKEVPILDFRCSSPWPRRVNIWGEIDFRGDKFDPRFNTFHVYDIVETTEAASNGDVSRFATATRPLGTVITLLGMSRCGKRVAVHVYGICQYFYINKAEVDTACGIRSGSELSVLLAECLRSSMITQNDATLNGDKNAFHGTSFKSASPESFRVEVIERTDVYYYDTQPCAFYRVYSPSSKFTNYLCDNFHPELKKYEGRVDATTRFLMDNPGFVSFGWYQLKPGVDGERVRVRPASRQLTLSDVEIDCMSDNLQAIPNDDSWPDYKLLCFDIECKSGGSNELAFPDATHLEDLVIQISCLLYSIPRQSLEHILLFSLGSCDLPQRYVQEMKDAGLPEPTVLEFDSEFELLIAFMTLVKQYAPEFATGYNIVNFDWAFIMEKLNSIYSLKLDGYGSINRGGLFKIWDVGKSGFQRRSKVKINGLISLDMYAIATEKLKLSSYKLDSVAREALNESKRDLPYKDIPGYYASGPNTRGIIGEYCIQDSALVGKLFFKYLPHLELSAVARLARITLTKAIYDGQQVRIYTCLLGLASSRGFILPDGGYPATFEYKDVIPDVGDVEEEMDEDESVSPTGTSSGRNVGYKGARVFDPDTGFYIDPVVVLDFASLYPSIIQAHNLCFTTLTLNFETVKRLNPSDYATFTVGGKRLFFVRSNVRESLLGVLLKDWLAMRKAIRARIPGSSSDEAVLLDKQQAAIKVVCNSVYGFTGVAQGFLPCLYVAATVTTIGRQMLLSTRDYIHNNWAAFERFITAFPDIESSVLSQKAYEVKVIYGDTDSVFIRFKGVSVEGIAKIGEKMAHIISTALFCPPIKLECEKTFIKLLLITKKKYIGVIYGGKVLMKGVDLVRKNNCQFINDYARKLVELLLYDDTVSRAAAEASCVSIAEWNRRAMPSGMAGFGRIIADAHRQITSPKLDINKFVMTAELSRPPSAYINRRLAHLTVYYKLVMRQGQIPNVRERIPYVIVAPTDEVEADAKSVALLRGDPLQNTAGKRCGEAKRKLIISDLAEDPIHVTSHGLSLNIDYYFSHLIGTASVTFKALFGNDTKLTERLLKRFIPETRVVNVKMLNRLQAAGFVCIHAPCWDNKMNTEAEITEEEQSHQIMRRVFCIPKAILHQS
Procedure: (§1) CMV and VZW Polymerase Assays
(§2) Human cytomegalovirus and varicella zoster virus DNA polymerases were expressed via baculovirus vector in SF21 cells and purified. Heterodimeric nucleic acid substrate used in the herpesvirus polymerase reactions were generated by annealing a 59-mer template to a 17-mer digoxigenin-labeled primer. Polymerase (HCMV final concentration of 0.2 nM; VZV final concentration of 0.4 nM) was combined with an inhibitor compound or DMSO in assay buffer (10 mM HEPES, pH 7.5, 25 mM KCl, 25 mM NaCl, 5 mM MgCl2, 5% glycerol, 0.67 mg/ml bovine serum albumin, and 1 mM tris(2-carboxyethyl)phosphine)), and this mixture was pre-incubated for 30 minutes at room temperature in 384-well microtiter plates. The polymerization reaction was initiated by the addition of template/primer substrate (final concentration: 1.6 nM) and dNTPs (final concentration: 24 nM dCTP, 24 nMdGTP, 16 nM dATP, 16 nM dTTP, and 0.8 nM biotin-dUTP). After a 60 minute incubation period at 37° C., the reactions were terminated using quench buffer (25 mM HEPES pH 7.5, 100 mM NaCl, 0.25% Tween-20, 12 mM EDTA, and 1 mg/ml bovine serum albumin). Incorporation of biotinylated UTP was detected with 2.5-5 μg/mL anti-DIG AlphaLISA acceptor beads and 5-10 μg/mL streptavidin AlphaLISA donor beads (PerkinElmer). Compound effects were normalized to the window defined by the controls (DMSO only and pre-quenched wells) and were fit using a 4-parameter algorithm to report an IC50.

[2] = tested on: HSV-1 Strain F; assay: Viral qPCR assay, HSV-1 (Example 14); assay type: cell-based; settings: Strain F in Vero or MRCS cells, 0.0005-0.004 pfu/cell, viral genome copy number by qPCR, read-out: HSV1 Cell EC50
Procedure: (§3) MRCS and Vero cells were obtained from ATCC and were maintained at 37° C./5% CO2/90% relative humidity in Minimal Essential Medium with 10% fetal bovine serum, […], 100 units/mL penicillin and 100 ug/mL streptomycin. Assay plates were prepared by dispensing compounds dissolved in DMSO into wells of 384 well collagen-coated plates using an ECHO acoustic dispenser. Each test compound was tested in a 10-point, serial 3-fold dilution. Controls included uninfected cells and infected cells treated only with DMSO. Assays were initiated by mixing selected cells, in suspension, with virus, and dispensing 50 μl/well infected cells to pre-plated compounds. Plates were incubated at 37° C./5% CO2/90% relative humidity for ˜72 hours to permit genomic replication, and infected cells were lysed by the addition of an equal volume of lysis buffer (10 mM Tris-HCl, pH8, 50 mM KCl, 2 mM MgCl2, 0.45% NP-40, 0.45% Tween-20, and 100 μg/mL proteinase K). An aliquot of the lysate was then transferred to a 384-well PCR plate and incubated at 56° C. for 1 hour, and then at 95° C. for 10 minutes. Levels of a viral gene were measured in 10 ul qPCR assays using TaqMan® Gene Expression Master Mix (Applied Biosystems) and an 7900HT Fast Real-Time PCR System with 384-Well Block Module. 7-point, serial 10-fold dilutions of a plasmid standard were run on each plate to generate a standard curve, and genome copies numbers were calculated by plotting experimental Ct onto linear regression of the standard curve. Compound effects on viral genome copy number were normalized to the window defined by the controls. Calculated % effects were fit using a 4-parameter algorithm, and EC50 was reported. • HCMV: Strain AD169 was assayed in MRC-5 cells and was used at 0.05-0.1 pfu/cell. The assays were performed in either growth media or in the same media with 50% fetal bovine serum. Primer-probe set was Thermo Fisher Assay ID=AIFATFK. • HSV-1: Strain F was assayed in Vero or MRCS cells and was used at 0.0005-0.004 pfu/cell in growth medium. Primer-probe set was Thermo Fisher Assay ID=AIBJZIB. • HSV-2: Strain G was assayed in Vero or MRCS cells and was used at 0.004-0.4 pfu/cell in growth medium. Primer-probe set was Thermo Fisher Assay ID=AICSXOJ.

[3] = tested on: HSV-2 Strain G; assay: Viral qPCR assay, HSV-2 (Example 14); assay type: cell-based; settings: Strain G in Vero or MRCS cells, 0.004-0.4 pfu/cell, viral genome copy number by qPCR, read-out: HSV2 Cell EC50
Procedure: as §3

[4] = biological target: T2, Human cytomegalovirus DNA polymerase (Human cytomegalovirus, UniProt P08546); assay: CMV polymerase assay (AlphaLISA, Example 15); assay type: biochemical; settings: HCMV polymerase 0.2 nM; 30 min pre-incubation; 60 min at 37° C.
T2 construct: made in house; host or cells: SF21 insect cells (baculovirus vector)
T2 sequence (P08546 whole entry): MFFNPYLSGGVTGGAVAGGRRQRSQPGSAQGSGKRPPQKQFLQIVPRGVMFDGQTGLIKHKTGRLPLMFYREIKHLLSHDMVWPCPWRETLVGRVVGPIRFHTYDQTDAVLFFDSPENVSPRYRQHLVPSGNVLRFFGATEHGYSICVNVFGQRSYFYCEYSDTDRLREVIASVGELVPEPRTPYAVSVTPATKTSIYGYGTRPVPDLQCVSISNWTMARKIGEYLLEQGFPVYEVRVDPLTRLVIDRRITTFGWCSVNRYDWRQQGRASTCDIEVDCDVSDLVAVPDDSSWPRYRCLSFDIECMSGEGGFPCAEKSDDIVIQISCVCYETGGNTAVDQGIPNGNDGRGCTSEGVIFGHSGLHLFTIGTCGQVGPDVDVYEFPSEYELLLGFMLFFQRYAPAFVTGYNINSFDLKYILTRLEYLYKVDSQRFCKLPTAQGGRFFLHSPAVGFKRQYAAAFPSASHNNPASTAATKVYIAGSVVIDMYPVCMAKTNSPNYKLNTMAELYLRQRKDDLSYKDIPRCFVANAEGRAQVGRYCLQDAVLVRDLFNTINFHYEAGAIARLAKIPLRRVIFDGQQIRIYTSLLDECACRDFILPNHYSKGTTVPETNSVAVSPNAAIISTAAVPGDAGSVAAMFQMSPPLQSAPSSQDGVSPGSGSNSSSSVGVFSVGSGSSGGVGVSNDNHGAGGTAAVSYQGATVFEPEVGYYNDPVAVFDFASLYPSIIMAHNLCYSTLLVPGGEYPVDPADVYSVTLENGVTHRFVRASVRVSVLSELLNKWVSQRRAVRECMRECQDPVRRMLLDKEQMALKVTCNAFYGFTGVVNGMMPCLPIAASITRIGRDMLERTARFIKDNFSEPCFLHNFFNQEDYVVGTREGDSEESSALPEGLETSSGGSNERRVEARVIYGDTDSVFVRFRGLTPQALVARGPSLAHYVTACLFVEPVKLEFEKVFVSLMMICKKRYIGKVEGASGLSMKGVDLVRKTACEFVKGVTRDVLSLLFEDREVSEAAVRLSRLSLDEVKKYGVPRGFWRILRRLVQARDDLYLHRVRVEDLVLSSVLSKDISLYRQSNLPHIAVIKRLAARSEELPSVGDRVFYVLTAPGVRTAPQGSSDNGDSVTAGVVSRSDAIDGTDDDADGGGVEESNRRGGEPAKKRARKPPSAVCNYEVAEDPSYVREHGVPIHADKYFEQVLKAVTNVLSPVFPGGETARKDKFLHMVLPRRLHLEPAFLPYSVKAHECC
Procedure: as §1, §2

[5] = tested on: HCMV Strain AD169; assay: Viral qPCR assay, HCMV (Example 14); assay type: cell-based
Procedure: as §3

[6] = Human alphaherpesvirus 1, Vero, 72 h
[7] = Human alphaherpesvirus 2, Vero, 72 h
[8] = Human betaherpesvirus 5, AD169, MRC5, 72 h, Strain AD169 in MRC-5 cells, 0.05-0.1 pfu/cell, ~72 hours, viral genome copy number by qPCR, growth media or 50% fetal bovine serum, read-out: CMV Cell EC50
[9] = Strain AD169 in MRC-5 cells, 0.05-0.1 pfu/cell, ~72 hours, viral genome copy number by qPCR, growth media or 50% fetal bovine serum, read-out: CMV Cell EC50

Structure (SMILES) | IC50 [1] | EC50 [2, 6] | EC50 [3, 7] | IC50 [4] | EC50 ([2]; ~72 hours) | EC50 ([3]; ~72 hours) | EC50 [5, 8] | EC50 ([5]; Human betaherpesvirus 5, AD169, MRC5, 72 h, read-out: CMV Cell EC50 (nM)) | EC50 [5, 9]
COc1nc(N2CCC(F)(c3ccc(C#N)cc3)C2=O)ccc1C[C@H]1COC(=O)N1 (single isomer, unassigned) [Compound 8] | 34 nM | 958 nM | 884 nM | 10 nM |  |  | 434 nM |  | 
COc1nc(NC(=O)Cc2ccc(Cl)cc2COCc2ccccc2)ccc1C[C@H]1COC(=O)N1 [Compound 2] |  |  |  | 108 nM |  |  | 3550 nM |  | 
COCc1cc(Cl)ccc1CC(=O)Nc1ccc(C[C@H]2COC(=O)N2)c(OC)n1 [Compound 5] | 18 nM | 166 nM | 318 nM | 12 nM |  |  | 116 nM |  | 
COc1nc(N2CCN(c3ccc(Cl)cc3)C2=O)ccc1C[C@H]1COC(=O)N1 [Compound 10] |  | 282 nM | 291 nM | 14 nM |  |  | 522 nM |  | 
COc1nc(N2CCN(c3ccc(C#N)c(F)c3)C2=O)ccc1C[C@H]1COC(=O)N1 [Compound 11] |  |  |  | 30 nM |  |  |  | 596 nM | 
COc1nc(NC(=O)N2Cc3ccc(Cl)cc3C2)ccc1C[C@H]1COC(=O)N1 [Compound 12] | 4820 nM |  |  | 3770 nM |  |  | > 9900 nM |  | 
COc1nc(NC(=O)C2CCc3cc(Cl)ccc32)ccc1C[C@H]1COC(=O)N1 (stereo partly shown) [Compound 17] |  | 127 nM | 99 nM | 23 nM |  |  | 133 nM |  | 
COc1nc(NC(=O)C2CCc3cc(Cl)ccc3O2)ccc1C[C@H]1COC(=O)N1 (stereo partly shown) [Compound 18] | 1 nM | 128 nM | 148 nM | 1.4 nM |  |  | 435 nM |  | 
COc1nc(N2CCC(c3ccc(C#N)cc3)C2=O)ccc1C[C@H]1COC(=O)N1 (stereo partly shown) [Compound 20] | 5 nM | 124 nM | 132 nM | 6 nM |  |  | 120 nM |  | 
COc1nc(N2CCN(c3ccc(C#N)cc3)C2=O)ccc1C[C@H]1COC(=O)N1 [Compound 21] |  | 309 nM | 90 nM | 29 nM |  |  | 369 nM |  | 
COc1nc(NC(=O)C2CCc3cc(C#N)ccc3O2)ccc1C[C@H]1COC(=O)N1 (stereo partly shown) [Compound 23] | 0.4 nM | 44 nM | 56 nM | 0.4 nM |  |  | 38 nM |  | 
COc1nc(NC(=O)[C@@H]2Cc3ccc(C#N)cc3CN2C)ccc1C[C@H]1COC(=O)N1 [Compound 28] |  | 381 nM | 802 nM |  |  |  | 175 nM |  | 
COc1nc(NC(=O)C2CCc3cc(C#N)ccc3C2)ccc1C[C@H]1COC(=O)N1 (stereo partly shown) [Compound 31] |  |  |  |  | 70100 nM | 48400 nM |  |  | 11100 nM
COc1nc(NC(=O)C2CCc3cc(C#N)ccc3C2)ccc1C[C@H]1COC(=O)N1 (stereo partly shown) [Compound 32] |  |  |  |  | 117 nM | 173 nM |  |  | 73 nM
COc1nc(NC(=O)C2Cc3ccc(C#N)cc3CN2)ccc1C[C@H]1COC(=O)N1 (stereo partly shown) [Compound 35] |  |  |  |  | 252 nM | 583 nM |  |  | 206 nM
COc1nc(NC(=O)C2Cc3ccc(C#N)cc3CN2)ccc1C[C@H]1COC(=O)N1 (stereo partly shown) [Compound 36] |  |  |  |  | 1940 nM | 11100 nM |  |  | 1660 nM

Now from value to compound, other results behind:

IC50 [1] | EC50 [2, 6] | EC50 [3, 7] | IC50 [4] | EC50 ([2]; ~72 hours) | EC50 ([3]; ~72 hours) | Structure (SMILES) | EC50 [5, 8] | EC50 ([5]; Human betaherpesvirus 5, AD169, MRC5, 72 h, read-out: CMV Cell EC50 (nM)) | EC50 [5, 9]
 | 396 nM | 504 nM | 12 nM |  |  | COc1nc(NC(=O)Cc2ccc(Cl)cc2CO)ccc1C[C@H]1COC(=O)N1 [Compound 3] | 178 nM |  | 
8 nM | 152 nM | 198 nM | 9 nM |  |  | COCc1cc(C#N)ccc1CC(=O)Nc1ccc(C[C@H]2COC(=O)N2)c(OC)n1 [Compound 6] | 36 nM |  | 
8 nM | 300 nM | 191 nM | 22 nM |  |  | COc1nc(NC(=O)Cc2ccc(C#N)cc2)ccc1C[C@H]1COC(=O)N1 [Compound 13] | 128 nM |  | 
 | 281 nM | 134 nM | 11 nM |  |  | COc1nc(NC(=O)Cc2ccc(C(F)(F)F)c(F)c2)ccc1C[C@H]1COC(=O)N1 [Compound 14] | 486 nM |  | 
8 nM | 453 nM | 523 nM | 7.5 nM |  |  | COc1nc(NC(=O)Cc2ccc(C#N)cc2F)ccc1C[C@H]1COC(=O)N1 [Compound 15] | 83 nM |  | 
7 nM | 311 nM | 259 nM | 10 nM |  |  | COc1nc(NC(=O)C2CCc3cc(C#N)ccc32)ccc1C[C@H]1COC(=O)N1 (stereo partly shown) [Compound 19] | 475 nM |  | 
 | 131 nM | 100 nM | 35 nM |  |  | COc1nc(N2CCN(Cc3ccc(C#N)cc3)C2=O)ccc1C[C@H]1COC(=O)N1 [Compound 22] | 318 nM |  | 
 |  |  |  | 60 nM | 73 nM | COc1nc(NC(=O)C2CN(C)c3cc(C#N)ccc3O2)ccc1C[C@H]1COC(=O)N1 (stereo partly shown) [Compound 26] |  |  | 39 nM
 |  |  |  | 62000 nM | 12900 nM | COc1nc(NC(=O)C2CN(C)c3cc(C#N)ccc3O2)ccc1C[C@H]1COC(=O)N1 (stereo partly shown) [Compound 27] |  |  | 10600 nM
 |  |  |  | 3510 nM | 4990 nM | COc1nc(NC(=O)C2CCc3cc(C#N)ccc3N2C)ccc1C[C@H]1COC(=O)N1 (stereo partly shown) [Compound 29] |  |  | 345 nM
 |  |  |  | 7440 nM | 10700 nM | COc1nc(NC(=O)C2CCc3cc(C#N)ccc3N2C)ccc1C[C@H]1COC(=O)N1 (stereo partly shown) [Compound 30] |  |  | 2720 nM
 |  |  |  | 8920 nM | 11100 nM | COc1nc(NC(=O)C2(C)CCc3cc(C#N)ccc3O2)ccc1C[C@H]1COC(=O)N1 (stereo partly shown) [Compound 33] |  |  | 1660 nM
 |  |  |  | > 80200 nM | > 80200 nM | COc1nc(NC(=O)C2(C)CCc3cc(C#N)ccc3O2)ccc1C[C@H]1COC(=O)N1 (stereo partly shown) [Compound 34] |  |  | 39800 nM
